Assay results reported in US6133311A, “Method for preventing or treating elevated blood lipid level-related diseases by administering natural phenolic compounds” (priority 1998, dated 2000).

How the values were obtained:
HMG-CoA reductase = target: T1, HMG-CoA reductase (Rattus norvegicus, UniProt P51639); experiment: HMG-CoA reductase inhibition in liver microsomes of fed rats; format: biochemical; conditions: liver microsomes of rats fed 0.1% compound, vs Control
T1 construct: from tissue; host or cells: rat liver microsomes
T1 sequence (P51639 1-887): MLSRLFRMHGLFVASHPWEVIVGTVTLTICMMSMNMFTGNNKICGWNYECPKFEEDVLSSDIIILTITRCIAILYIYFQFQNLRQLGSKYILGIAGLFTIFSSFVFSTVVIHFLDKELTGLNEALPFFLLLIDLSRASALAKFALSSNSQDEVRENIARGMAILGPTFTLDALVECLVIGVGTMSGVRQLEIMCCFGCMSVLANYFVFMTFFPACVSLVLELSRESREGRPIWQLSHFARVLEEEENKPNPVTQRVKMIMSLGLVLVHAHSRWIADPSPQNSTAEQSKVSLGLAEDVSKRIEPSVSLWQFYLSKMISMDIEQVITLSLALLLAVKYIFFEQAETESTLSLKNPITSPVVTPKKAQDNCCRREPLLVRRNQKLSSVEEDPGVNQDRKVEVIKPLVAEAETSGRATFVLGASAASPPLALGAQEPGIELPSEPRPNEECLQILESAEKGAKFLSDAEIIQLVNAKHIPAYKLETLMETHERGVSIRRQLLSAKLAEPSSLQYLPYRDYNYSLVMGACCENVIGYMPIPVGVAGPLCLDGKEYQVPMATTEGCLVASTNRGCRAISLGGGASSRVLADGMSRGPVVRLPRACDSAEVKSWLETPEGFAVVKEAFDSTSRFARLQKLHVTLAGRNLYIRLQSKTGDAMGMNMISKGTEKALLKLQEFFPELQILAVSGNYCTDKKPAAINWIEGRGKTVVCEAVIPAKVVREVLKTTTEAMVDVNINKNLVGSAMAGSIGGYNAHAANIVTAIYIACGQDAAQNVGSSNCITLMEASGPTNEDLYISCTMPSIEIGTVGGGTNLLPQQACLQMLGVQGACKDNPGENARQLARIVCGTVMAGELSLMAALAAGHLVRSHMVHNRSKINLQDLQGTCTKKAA
Method: Activity of tannin or gallic acid in HMG-CoA Reductase Inhibition
In order to determine the activity of HMG-CoA reductase, Hulcher's method was employed after some modification (see J. Lipid Res., 14, 625-641 (1973)). In this method, the concentration of the coenzyme-A (CoA-SH), which is produced when HMG-COA is reduced to a mevalonate salt by the action of HMG-COA reductase, is determined by spectroscopy and the activity of HMG-CoA reductase is calculated therefrom.
(Step 1) Preparation of microsomes
3 g of liver tissue taken from each group of rats of Example 2 was washed successively with 100 ml of a cold Saline (0.15M NaCl) and 100 ml of a cold buffer solution A (0.1M triethanolamine, HCl/0.2M EDTA/2 mM dithiothreitol (DTT)). The cold buffer solution A was added to the liver tissue in an amount of 2 ml per 1 g of the liver tissue and the mixture was homogenized with a homogenizer. […]
Then, the reactant was mixed with 20 μl of DTNB buffer solution (3mM DTNB/0.1M triethanolamine/0.2M EDTA, pH 7.4) and the absorbance of the mixture was determined at 412 nm to calculate the amount of CoA-SH (activity of HMG-COA reductase).
The extent of inhibition of HMG-CoA reductase activity by tannin and gallic acid were calculated based on the above result.

[1] = plasma cholesterol, HDL-cholesterol and neutral lipid levels in rats fed a high-cholesterol diet; format: in vivo, Sprague-Dawley rats; conditions: six weeks; for HDL-C/Total-C ratio higher than in the control group / neutral lipid content lower than in the Control group / total plasma cholesterol level lower than in the Control group: 0.1% in diet; for HDL-C / Total-C / HDL-C (HDL-cholesterol) / TG (triglyceride) / Total-C (total cholesterol): 1% cholesterol plus 0.1% compound in diet; for HDL-C / Total-C: Control 28; for HDL-C (HDL-cholesterol): Control 38 ± 2; for TG (triglyceride): Control 98 ± 5; for Total-C (total cholesterol): Control 135 ± 6
Description: Effect of Tannin, Gallic acid or Ellagic acid on Plasma Cholesterol, HDL-Cholesterol and Neutral Lipid Levels
(Step 1) Administration of tannin or gallic acid to rats
30 three-week-old white Sprague-Dawley rats (Taihan laboratory animal center, Korea), each weighing about 90 to 110 g, were evenly divided into three dietary groups by a randomized block design. The rats of the three groups were fed with three different high-cholesterol diets, i.e., AIN-76 laboratory animal diet (ICN Biochemicals, Cleveland, Ohio, U.S.A.) containing 1% cholesterol (Control group), 1% cholesterol plus 0.1% tannin group (tannin group) and 1% cholesterol plus 0.1% gallic acid, respectively.
The rats were allowed to feed freely on the specified diet together with water for six weeks, the ingestion amount was recorded daily and the rats were weighed every 7 days, and then the record was analyzed.
(Step 2) Determination of total cholesterol, HDL-cholesterol and neutral lipid content in blood
The effects of administering tannin or gallic acid to rats on the plasma cholesterol and neutral lipid contents were determined as follows.
The rats of the three dietary groups obtained in Step 1 were sacrificed and blood samples were taken therefrom. The blood was allowed to stand for 2 hours and centrifuged at 3,000 rpm for 15 minutes and the supernatant was separated and stored in a deep freezer before use. The chemical analysis of blood was carried out by employing a blood chemical analyzer (CIBA Corning 550 Express, USA) to determine the changes in total cholesterol, HDL-cholesterol and triglyceride levels.

## O=C(O)c1cc(O)c(O)c(O)c1 [Gallic acid, gallic acid]
HMG-CoA reductase
  Inhibition of HMG-CoA reductase activity: 6.0%
[1]
  HDL-C/Total-C ratio higher than in the control group: 21%
  neutral lipid content lower than in the Control group: 22%
  total plasma cholesterol level lower than in the Control group: 31%
  HDL-C / Total-C: 34%
  HDL-C (HDL-cholesterol): 32 ± 3 mg/dL
  TG (triglyceride): 77 ± 4 mg/dL
  Total-C (total cholesterol): 93 ± 5 mg/dL

## tannin
HMG-CoA reductase
  Inhibition of HMG-CoA reductase activity: 23.5%
[1]
  HDL-C/Total-C ratio higher than in the control group: 54%
  neutral lipid content lower than in the Control group: 21%
  total plasma cholesterol level lower than in the Control group: 35%
  HDL-C / Total-C: 43%
  HDL-C (HDL-cholesterol): 37 ± 2 mg/dL
  TG (triglyceride): 76 ± 3 mg/dL
  Total-C (total cholesterol): 88 ± 4 mg/dL
